Patent publication US6914045B2, “Glycopeptide antibiotics” (Wyeth Holdings Corporation, priority 2001, dated 2005)

What was measured:
Assay in all cases: in vitro antibacterial evaluation, MIC by broth dilution
Type in all cases: cell-based
Enterococcus sp. = conditions: broth dilution, 18 hours at 35° C.
How it was run: (§1)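 Step 1: dilute antibiotic across 64-0.06 μg/mL in Muller-Hinton II […]. Step 2: inoculate at 5×10^5 CFU/mL.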

Escherichia coli = conditions: 18 hours at 35° C.; for MIC Escherichia coli (ATCC 25922): strain ATCC 25922; for MIC Escherichia coli (GC 4559): strain GC 4559; for MIC Escherichia coli (GC 4560): strain GC 4560
How it was run: as §1

Staphylococcus sp. = conditions: broth dilution, 18 hours at 35° C.; for MIC Staphylococcus haemolyticus (GC 4546): strain GC 4546; for MIC Coagulase Negative Staphylococcus (GC 4547): strain GC 4547; for MIC Coagulase Negative Staphylococcus (GC 4548): strain GC 4548; for MIC Coagulase Negative Staphylococcus (GC 4549): strain GC 4549; for MIC Coagulase Negative Staphylococcus (GC 4551): strain GC 4551; for MIC Coagulase Negative Staphylococcus (GC 6257): strain GC 6257
How it was run: as §1

Streptococcus sp. = conditions: broth dilution, 18 hours at 35° C.
How it was run: as §1

[1] = Enterococcus faecalis (ATCC 29212)
[2] = Enterococcus faecalis (GC 2242)
[3] = Enterococcus faecalis (GC 2691)
[4] = Enterococcus faecalis (GC 3059)
[5] = Enterococcus faecalis (GC 4552)
[6] = Enterococcus faecalis (GC 4553)
[7] = Enterococcus faecalis (GC 4554)
[8] = Enterococcus faecalis (GC 6189)
[9] = inoculum 5×10^5 CFU/mL, strain GC 1131
[10] = Streptococcus agalactiae (GC 4564)
[11] = Streptococcus pneumoniae (ATCC 6301)
[12] = Streptococcus pneumoniae (GC 1894)
[13] = Streptococcus pneumoniae (GC 4565)
[14] = Streptococcus pyogenes (GC 4563)

CC(C)=CCCC(C)CC1OCC2OC(OC3C(CO)OC(Oc4ccc(CC5NC(=O)C(C(C)c6ccccc6)NC(=O)CNC(=O)C(CO)NC(=O)C(C(O)C6CNC(=N)N6C6OC(CO)C(O)C(O)C6O)NC(=O)C(C(O)C6CNC(=N)N6)NC5=O)cc4)C(O)C3O)C(O)C(O)C2O1 (centres unmarked) [Example 126]
0.12 µg/mL: MIC Streptococcus pyogenes (GC 4563) (Streptococcus sp.; [14]) | MIC Streptococcus pyogenes (GC 4563) (Streptococcus sp.; strain GC 4563)
8 µg/mL: MIC Enterococcus avium (GC 4558) (Enterococcus sp.; Enterococcus avium (GC 4558)) | MIC Enterococcus faecalis (ATCC 29212) (Enterococcus sp.; [1]) | MIC Enterococcus faecalis (GC 2242) (Enterococcus sp.; [2]) | MIC Enterococcus faecalis (GC 2691) (Enterococcus sp.; [3]) | MIC Enterococcus faecalis (GC 3059) (Enterococcus sp.; [4]) | MIC Enterococcus faecalis (GC 4552) (Enterococcus sp.; [5]) | MIC Enterococcus faecalis (GC 4553) (Enterococcus sp.; [6]) | MIC Enterococcus faecalis (GC 4554) (Enterococcus sp.; [7]) | MIC Enterococcus faecalis (GC 6189) (Enterococcus sp.; [8]) | MIC Enterococcus faecium (GC 2243) (Enterococcus sp.; Enterococcus faecium (GC 2243)) | MIC Enterococcus faecium (GC 4556) (Enterococcus sp.; Enterococcus faecium (GC 4556)) | MIC Enterococcus faecium (GC 4557) (Enterococcus sp.; Enterococcus faecium (GC 4557)) | MIC Enterococcus faecalis (ATCC 29212) (Enterococcus sp.; strain ATCC 29212) | MIC Enterococcus faecalis (GC 2242) (Enterococcus sp.; strain GC 2242) | MIC Enterococcus faecium (GC 2243) (Enterococcus sp.; strain GC 2243) | MIC Enterococcus faecalis (GC 2691) (Enterococcus sp.; strain GC 2691) | MIC Enterococcus faecalis (GC 3059) (Enterococcus sp.; strain GC 3059) | MIC Enterococcus faecalis (GC 4552) (Enterococcus sp.; strain GC 4552) | MIC Enterococcus faecalis (GC 4553) (Enterococcus sp.; strain GC 4553) | MIC Enterococcus faecalis (GC 4554) (Enterococcus sp.; strain GC 4554) | MIC Enterococcus faecium (GC 4556) (Enterococcus sp.; strain GC 4556) | MIC Enterococcus faecium (GC 4557) (Enterococcus sp.; strain GC 4557) | MIC Enterococcus avium (GC 4558) (Enterococcus sp.; strain GC 4558) | MIC Enterococcus faecalis (GC 6189) (Enterococcus sp.; strain GC 6189) | MIC Escherichia coli (GC 4560) (Escherichia coli) | MIC Staphylococcus aureus (ATCC 29213) (Staphylococcus sp.) | MIC Staphylococcus aureus (GC 1131) (Staphylococcus sp.) | MIC Staphylococcus aureus (GC 3051) (Staphylococcus sp.) | MIC Staphylococcus aureus (GC 3053) (Staphylococcus sp.) | MIC Staphylococcus aureus (GC 4541) (Staphylococcus sp.) | MIC Staphylococcus aureus (GC 4542) (Staphylococcus sp.) | MIC Staphylococcus aureus (GC 4544) (Staphylococcus sp.) | MIC Staphylococcus aureus (GC 4545) (Staphylococcus sp.) | MIC Staphylococcus aureus (GC 1131) (Staphylococcus sp.; [9]) | MIC Staphylococcus aureus (ATCC 29213) (Staphylococcus sp.; strain ATCC 29213) | MIC Staphylococcus aureus (GC 3051) (Staphylococcus sp.; strain GC 3051) | MIC Staphylococcus aureus (GC 3053) (Staphylococcus sp.; strain GC 3053) | MIC Staphylococcus aureus (GC 4541) (Staphylococcus sp.; strain GC 4541) | MIC Staphylococcus aureus (GC 4542) (Staphylococcus sp.; strain GC 4542) | MIC Staphylococcus aureus-SMITH (GC 4543) (Staphylococcus sp.; strain GC 4543) | MIC Staphylococcus aureus (GC 4544) (Staphylococcus sp.; strain GC 4544) | MIC Staphylococcus aureus (GC 4545) (Staphylococcus sp.; strain GC 4545) | MIC Staphylococcus haemolyticus (GC 4546) (Staphylococcus sp.) | MIC Coagulase Negative Staphylococcus (GC 4547) (Staphylococcus sp.) | MIC Coagulase Negative Staphylococcus (GC 4548) (Staphylococcus sp.) | MIC Coagulase Negative Staphylococcus (GC 4549) (Staphylococcus sp.) | MIC Coagulase Negative Staphylococcus (GC 4551) (Staphylococcus sp.) | MIC Coagulase Negative Staphylococcus (GC 6257) (Staphylococcus sp.) | MIC Staphylococcus aureus-SMITH (GC 4543) (Staphylococcus sp.; strain SMITH GC 4543)
64 µg/mL: MIC Escherichia coli (ATCC 25922) (Escherichia coli) | MIC Escherichia coli (GC 4559) (Escherichia coli)
1 µg/mL: MIC Streptococcus agalactiae (GC 4564) (Streptococcus sp.; [10]) | MIC Streptococcus agalactiae (GC 4564) (Streptococcus sp.; strain GC 4564)
<0.06 µg/mL: MIC Streptococcus pneumoniae (ATCC 6301) (Streptococcus sp.; [11]) | MIC Streptococcus pneumoniae (GC 1894) (Streptococcus sp.; [12]) | MIC Streptococcus pneumoniae (GC 4565) (Streptococcus sp.; [13]) | MIC Streptococcus pneumoniae (ATCC 6301) (Streptococcus sp.; strain ATCC 6301) | MIC Streptococcus pneumoniae (GC 1894) (Streptococcus sp.; strain GC 1894) | MIC Streptococcus pneumoniae (GC 4565) (Streptococcus sp.; strain GC 4565)

CC(C)=CCCC1OCC2OC(OC3C(CO)OC(Oc4ccc(CC5NC(=O)C(C(C)c6ccccc6)NC(=O)CNC(=O)C(CO)NC(=O)C(C(O)C6CNC(=N)N6C6OC(CO)C(O)C(O)C6O)NC(=O)C(C(O)C6CNC(=N)N6)NC5=O)cc4)C(O)C3O)C(O)C(O)C2O1 (centres unmarked) [Example 123]
2 µg/mL: MIC Streptococcus agalactiae (GC 4564) (Streptococcus sp.; [10]) | MIC Streptococcus pneumoniae (GC 4565) (Streptococcus sp.; [13]) | MIC Streptococcus agalactiae (GC 4564) (Streptococcus sp.; strain GC 4564) | MIC Streptococcus pneumoniae (GC 4565) (Streptococcus sp.; strain GC 4565)
16 µg/mL: MIC Enterococcus avium (GC 4558) (Enterococcus sp.; Enterococcus avium (GC 4558)) | MIC Enterococcus faecalis (GC 2691) (Enterococcus sp.; [3]) | MIC Enterococcus faecalis (GC 3059) (Enterococcus sp.; [4]) | MIC Enterococcus faecalis (GC 4553) (Enterococcus sp.; [6]) | MIC Enterococcus faecalis (GC 4554) (Enterococcus sp.; [7]) | MIC Enterococcus faecalis (GC 2691) (Enterococcus sp.; strain GC 2691) | MIC Enterococcus faecalis (GC 3059) (Enterococcus sp.; strain GC 3059) | MIC Enterococcus faecalis (GC 4553) (Enterococcus sp.; strain GC 4553) | MIC Enterococcus faecalis (GC 4554) (Enterococcus sp.; strain GC 4554) | MIC Enterococcus avium (GC 4558) (Enterococcus sp.; strain GC 4558)
1 µg/mL: MIC Streptococcus pneumoniae (ATCC 6301) (Streptococcus sp.; [11]) | MIC Streptococcus pneumoniae (GC 1894) (Streptococcus sp.; [12]) | MIC Streptococcus pneumoniae (ATCC 6301) (Streptococcus sp.; strain ATCC 6301) | MIC Streptococcus pneumoniae (GC 1894) (Streptococcus sp.; strain GC 1894)
0.5 µg/mL: MIC Streptococcus pyogenes (GC 4563) (Streptococcus sp.; [14]) | MIC Streptococcus pyogenes (GC 4563) (Streptococcus sp.; strain GC 4563)
4 µg/mL: MIC Staphylococcus aureus (GC 4541) (Staphylococcus sp.) | MIC Staphylococcus aureus (GC 4542) (Staphylococcus sp.) | MIC Staphylococcus aureus (GC 4541) (Staphylococcus sp.; strain GC 4541) | MIC Staphylococcus aureus (GC 4542) (Staphylococcus sp.; strain GC 4542) | MIC Staphylococcus aureus-SMITH (GC 4543) (Staphylococcus sp.; strain GC 4543) | MIC Coagulase Negative Staphylococcus (GC 4548) (Staphylococcus sp.) | MIC Coagulase Negative Staphylococcus (GC 4549) (Staphylococcus sp.) | MIC Coagulase Negative Staphylococcus (GC 6257) (Staphylococcus sp.) | MIC Staphylococcus aureus-SMITH (GC 4543) (Staphylococcus sp.; strain SMITH GC 4543)
8 µg/mL: MIC Enterococcus faecalis (ATCC 29212) (Enterococcus sp.; [1]) | MIC Enterococcus faecalis (GC 2242) (Enterococcus sp.; [2]) | MIC Enterococcus faecalis (GC 4552) (Enterococcus sp.; [5]) | MIC Enterococcus faecalis (GC 6189) (Enterococcus sp.; [8]) | MIC Enterococcus faecium (GC 2243) (Enterococcus sp.; Enterococcus faecium (GC 2243)) | MIC Enterococcus faecium (GC 4556) (Enterococcus sp.; Enterococcus faecium (GC 4556)) | MIC Enterococcus faecium (GC 4557) (Enterococcus sp.; Enterococcus faecium (GC 4557)) | MIC Enterococcus faecalis (ATCC 29212) (Enterococcus sp.; strain ATCC 29212) | MIC Enterococcus faecalis (GC 2242) (Enterococcus sp.; strain GC 2242) | MIC Enterococcus faecium (GC 2243) (Enterococcus sp.; strain GC 2243) | MIC Enterococcus faecalis (GC 4552) (Enterococcus sp.; strain GC 4552) | MIC Enterococcus faecium (GC 4556) (Enterococcus sp.; strain GC 4556) | MIC Enterococcus faecium (GC 4557) (Enterococcus sp.; strain GC 4557) | MIC Enterococcus faecalis (GC 6189) (Enterococcus sp.; strain GC 6189) | MIC Escherichia coli (GC 4560) (Escherichia coli) | MIC Staphylococcus aureus (ATCC 29213) (Staphylococcus sp.) | MIC Staphylococcus aureus (GC 1131) (Staphylococcus sp.) | MIC Staphylococcus aureus (GC 3051) (Staphylococcus sp.) | MIC Staphylococcus aureus (GC 3053) (Staphylococcus sp.) | MIC Staphylococcus aureus (GC 4544) (Staphylococcus sp.) | MIC Staphylococcus aureus (GC 4545) (Staphylococcus sp.) | MIC Staphylococcus aureus (GC 1131) (Staphylococcus sp.; [9]) | MIC Staphylococcus aureus (ATCC 29213) (Staphylococcus sp.; strain ATCC 29213) | MIC Staphylococcus aureus (GC 3051) (Staphylococcus sp.; strain GC 3051) | MIC Staphylococcus aureus (GC 3053) (Staphylococcus sp.; strain GC 3053) | MIC Staphylococcus aureus (GC 4544) (Staphylococcus sp.; strain GC 4544) | MIC Staphylococcus aureus (GC 4545) (Staphylococcus sp.; strain GC 4545) | MIC Staphylococcus haemolyticus (GC 4546) (Staphylococcus sp.) | MIC Coagulase Negative Staphylococcus (GC 4547) (Staphylococcus sp.) | MIC Coagulase Negative Staphylococcus (GC 4551) (Staphylococcus sp.)
>64 µg/mL: MIC Escherichia coli (ATCC 25922) (Escherichia coli) | MIC Escherichia coli (GC 4559) (Escherichia coli)
